Literature values as cited in patent US20040092519A1, “New treatment for hot flashes” (priority 2002, published 2004).

Columns and labels:
[1] = low doses; men and women
[2] = transdermal; some patients

| SMILES | frequency of hot flashes [1] | side effects [2] |
| --- | --- | --- |
| CC(=O)O[C@]1(C(C)=O)CC[C@H]2[C@@H]3C=C(C)C4=CC(=O)CC[C@]4(C)[C@H]3CC[C@@]21C [megestrol acetate] | reduce the frequency of hot flashes | – |
| Clc1cccc(Cl)c1N=C1NCCN1 [clonidine] | – | drowsiness, fatigue, and symptoms of low blood pressure |
